PubChem BioAssay AID1963827 (Molecular Pharmacology Branch, DTP, NCI, 2024)

Tested on: 994946-033-R-J1-PDC complex spheroid viability
Assay: Anticancer human tumor 994946-033-R-J1-PDC patient-derived melanoma cell line growth inhibition [POLQ]
Conditions: for IC50: curve of first compound; for viability, T/C: stronger effect = lower value
Outline: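 Complex spheroid viability model combining PDC tumour cells with endothelial (HUVEC) and MSC stromal cells. Novobiocin, ART-558 or RP6685 were tested singly and in combination with standard and investigational anticancer drugs. Each was titrated in half-log steps from near clinical Cmax, or from 10 microM where Cmax was unknown.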

[1] = second compound 0.0316 µM, first compound 0.0316 µM
[2] = second compound 0.0316 µM, first compound 0.1 µM
[3] = second compound 0.0316 µM, first compound 0.316 µM
[4] = second compound 0.0316 µM, first compound 1 µM
[5] = second compound 0.0316 µM, first compound 3.16 µM
[6] = second compound 0.0316 µM, first compound 10 µM
[7] = second compound 0.1 µM, first compound 0.0316 µM
[8] = second compound 0.1 µM, first compound 0.1 µM
[9] = second compound 0.1 µM, first compound 0.316 µM
[10] = second compound 0.1 µM, first compound 1 µM
[11] = second compound 0.1 µM, first compound 3.16 µM
[12] = second compound 0.1 µM, first compound 10 µM
[13] = second compound 0.316 µM, first compound 0.0316 µM
[14] = second compound 0.316 µM, first compound 0.1 µM
[15] = second compound 0.316 µM, first compound 0.316 µM
[16] = second compound 0.316 µM, first compound 1 µM
[17] = second compound 0.316 µM, first compound 3.16 µM
[18] = second compound 0.316 µM, first compound 10 µM
[19] = second compound 1 µM, first compound 0.0316 µM
[20] = second compound 1 µM, first compound 0.1 µM
[21] = second compound 1 µM, first compound 0.316 µM
[22] = second compound 1 µM, first compound 1 µM
[23] = second compound 1 µM, first compound 3.16 µM
[24] = second compound 1 µM, first compound 10 µM
[25] = second compound 3.16 µM, first compound 0.0316 µM
[26] = second compound 3.16 µM, first compound 0.1 µM
[27] = second compound 3.16 µM, first compound 0.316 µM
[28] = second compound 3.16 µM, first compound 1 µM
[29] = second compound 3.16 µM, first compound 3.16 µM
[30] = second compound 3.16 µM, first compound 10 µM
[31] = second compound 10 µM, first compound 0.0316 µM
[32] = second compound 10 µM, first compound 0.1 µM
[33] = second compound 10 µM, first compound 0.316 µM
[34] = second compound 10 µM, first compound 1 µM
[35] = second compound 10 µM, first compound 3.16 µM
[36] = second compound 10 µM, first compound 10 µM
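Also: spheroids exposed to drugs for 7 days.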
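For viability, T/C in this document: 100% = DMSO vehicle treated spheroids.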

O=C(Nc1ccc(O)c(NS(=O)(=O)c2ccc(F)cc2)c1)c1ccc(-c2ccccc2)cc1 + COC1C(OC(N)=O)C(O)C(Oc2ccc3c(O)c(NC(=O)c4ccc(O)c(CC=C(C)C)c4)c(=O)oc3c2C)OC1(C)C
IC50 (second compound 0.0316 µM): 6.64 µM | IC50 (second compound 0.1 µM): 6.29 µM | IC50 (second compound 0.316 µM): 6.09 µM | IC50 (second compound 1 µM): 6.3 µM | IC50 (second compound 3.16 µM): 5.45 µM | IC50 (second compound 10 µM): 4.58 µM | viability, T/C [1]: 87.9% | viability, T/C [2]: 103% | viability, T/C [3]: 101% | viability, T/C [4]: 111% | viability, T/C [5]: 93% | viability, T/C [6]: 25.9% | viability, T/C [7]: 96% | viability, T/C [8]: 105% | viability, T/C [9]: 80.2% | viability, T/C [10]: 94.4% | viability, T/C [11]: 82.6% | viability, T/C [12]: 27.9% | viability, T/C [13]: 99% | viability, T/C [14]: 123% | viability, T/C [15]: 84.3% | viability, T/C [16]: 87.3% | viability, T/C [17]: 85.1% | viability, T/C [18]: 27.6% | viability, T/C [19]: 100% | viability, T/C [20]: 81.8% | viability, T/C [21]: 109% | viability, T/C [22]: 111% | viability, T/C [23]: 78% | viability, T/C [24]: 31.1% | viability, T/C [25]: 97.8% | viability, T/C [26]: 103% | viability, T/C [27]: 92.3% | viability, T/C [28]: 83.5% | viability, T/C [29]: 66.2% | viability, T/C [30]: 32.4% | viability, T/C [31]: 82.2% | viability, T/C [32]: 102% | viability, T/C [33]: 84.5% | viability, T/C [34]: 129% | viability, T/C [35]: 60.1% | viability, T/C [36]: 28.5%

CCc1cc2c(N3CCc4c(cc(Cn5ccnc5)cc4-c4cn(C)nc4C(F)(F)F)C3=O)ccnc2c(OC)n1 + Cc1cccc(N(C)C(=O)C2C(O)CCN2c2nc(C)cc(C(F)(F)F)c2C#N)c1
IC50 (second compound 0.0316 µM): > 10 µM | IC50 (second compound 0.1 µM): > 10 µM | IC50 (second compound 0.316 µM): > 10 µM | IC50 (second compound 1 µM): > 10 µM | IC50 (second compound 3.16 µM): > 10 µM | IC50 (second compound 10 µM): > 10 µM | viability, T/C [1]: 107% | viability, T/C [2]: 86.7% | viability, T/C [3]: 68.3% | viability, T/C [4]: 78.4% | viability, T/C [5]: 69.1% | viability, T/C [6]: 67.4% | viability, T/C [7]: 95.3% | viability, T/C [8]: 85.2% | viability, T/C [9]: 78.6% | viability, T/C [10]: 78.1% | viability, T/C [11]: 66.3% | viability, T/C [12]: 66.9% | viability, T/C [13]: 102% | viability, T/C [14]: 94.2% | viability, T/C [15]: 86.1% | viability, T/C [16]: 93.9% | viability, T/C [17]: 63.3% | viability, T/C [18]: 61.6% | viability, T/C [19]: 77.7% | viability, T/C [20]: 78.8% | viability, T/C [21]: 93.5% | viability, T/C [22]: 80.1% | viability, T/C [23]: 84.1% | viability, T/C [24]: 55.2% | viability, T/C [25]: 92.4% | viability, T/C [26]: 76.8% | viability, T/C [27]: 65% | viability, T/C [28]: 63% | viability, T/C [29]: 85.9% | viability, T/C [30]: 53.1% | viability, T/C [31]: 81.5% | viability, T/C [32]: 65.4% | viability, T/C [33]: 73.6% | viability, T/C [34]: 57.8% | viability, T/C [35]: 71.7% | viability, T/C [36]: 65.9%

CC1COCCN1c1cc(-c2ccnn2C)c2ccnc(-c3ccn[nH]3)c2n1 (stereo unspecified) + Cc1cccc(N(C)C(=O)C2C(O)CCN2c2nc(C)cc(C(F)(F)F)c2C#N)c1
IC50 (second compound 0.0316 µM): 0.0603 µM | IC50 (second compound 0.1 µM): 0.0536 µM | IC50 (second compound 0.316 µM): 0.0512 µM | IC50 (second compound 1 µM): 0.057 µM | IC50 (second compound 3.16 µM): < 0.0316 µM | IC50 (second compound 10 µM): 0.0882 µM | viability, T/C [1]: 77.7% | viability, T/C [2]: 27.9% | viability, T/C [3]: 13% | viability, T/C [4]: 24.4% | viability, T/C [5]: 16.6% | viability, T/C [6]: 8.57% | viability, T/C [7]: 69.1% | viability, T/C [8]: 28.4% | viability, T/C [9]: 14.2% | viability, T/C [10]: 31.3% | viability, T/C [11]: 15.1% | viability, T/C [12]: 7.78% | viability, T/C [13]: 72.5% | viability, T/C [14]: 18.6% | viability, T/C [15]: 25.1% | viability, T/C [16]: 12.4% | viability, T/C [17]: 15.7% | viability, T/C [18]: 7.71% | viability, T/C [19]: 63.4% | viability, T/C [20]: 33.9% | viability, T/C [21]: 29.9% | viability, T/C [22]: 16% | viability, T/C [23]: 13.6% | viability, T/C [24]: 7.27% | viability, T/C [25]: 49% | viability, T/C [26]: 35.3% | viability, T/C [27]: 18.5% | viability, T/C [28]: 12.7% | viability, T/C [29]: 11% | viability, T/C [30]: 6.95% | viability, T/C [31]: 81.8% | viability, T/C [32]: 42% | viability, T/C [33]: 30.7% | viability, T/C [34]: 21.6% | viability, T/C [35]: 15.3% | viability, T/C [36]: 8.65%
